Here are results for 10 compounds from ChEMBL document CHEMBL1143317, “Efficient synthesis and biological evaluation of 1,2,9-trisubstituted 1,9-dihydro-6H-purin-6-ones” (Bioorg Med Chem Lett, 2009).

For orientation: IC50 means the midpoint of a concentration-inhibition curve. Read a high IC50 as a need for much substance.

Some results are limits rather than exact numbers.

What all share (format): functional, cell-based
In one assay the test system is HepG2. The assay can be described thus: Cytotoxicity against human HepG2 cells after 72 hrs by MTT assay. The following applies: HepG2, 72 h. (Tetrazolium assays rely on reduction of a dye to a coloured formazan, in cell work by metabolically active cells.)
A further assay concerns KB. As to the kind of experiment: Cytotoxicity against human KB cells after 72 hrs by MTT assay.
The subject of the next assay is OVCAR-3. As to the kind of experiment: Cytotoxicity against human OVCAR-3 cells after 72 hrs by MTT assay. The following applies: OVCAR-3, 72 h.

Turning to `CCCCN(CCCC)c1nc2c(ncn2-c2ccccc2)c(=O)n1-c1ccccc1`, the results for the half-inhibitory concentration (IC50) with HepG2, in the assay on KB and with OVCAR-3 were 20.4 µM, 9.5 µM and 10 µM, respectively.
Taken in the same sequence, the figures for `CCCCCN(CCCCC)c1nc2c(ncn2-c2ccccc2)c(=O)n1-c1ccc(Cl)cc1` were over 100 µM, 10.6 µM and over 100 µM.
Consider `CNc1nc2c(ncn2-c2ccccc2)c(=O)n1-c1ccccc1`, for which the half-maximal inhibitory concentration (IC50) in the assay with HepG2, in the assay on KB and in the assay with OVCAR-3 was over 100 µM throughout.
As for `CCNc1nc2c(ncn2-c2ccccc2)c(=O)n1-c1ccccc1`, the IC50 in the assay on HepG2, in the assay with KB and in the assay on OVCAR-3 was over 100 µM each time.
`CNc1nc2c(ncn2-c2ccccc2)c(=O)n1-c1ccc(Cl)cc1`: the IC50 with HepG2, in the assay with KB and with OVCAR-3 was over 100 µM throughout.
Take `CCCCNc1nc2c(ncn2-c2ccccc2)c(=O)n1-c1ccc(Cl)cc1`: the values for the IC50 with HepG2, in the assay with KB and in the assay with OVCAR-3 were 77.6 µM, 37.7 µM and 94.8 µM, respectively.
Regarding `CC(C)N(c1nc2c(ncn2-c2ccccc2)c(=O)n1-c1ccccc1)C(C)C`, the IC50 in the assay on HepG2 was over 100 µM; with KB it was 53.5 µM; in the assay with OVCAR-3, over 100 µM.
As to `CN(C)c1nc2c(ncn2-c2ccccc2)c(=O)n1-c1ccccc1`, the IC50 is over 100 µM in the assay with HepG2, 83.8 µM in the assay with KB and over 100 µM with OVCAR-3.
Regarding `O=c1c2ncn(-c3ccccc3)c2nc(NCc2ccccc2)n1-c1ccc(Cl)cc1`, the IC50 in the assay on HepG2 turned out to be 62.1 µM; in the assay on KB it was 34.3 µM; with OVCAR-3 it was 46.7 µM.
`O=c1c2ncn(-c3ccccc3)c2nc(N2CCCCC2)n1-c1ccc(Cl)cc1`: the IC50 with HepG2 is over 100 µM; in the assay with KB, 72.8 µM; in the assay with OVCAR-3 it was over 100 µM.
